Measurements as given in US20040126359A1, “Hedgehog” (priority 2001, published 2004).
Each block holds one molecule with its values, some of them ahead of it.

Columns and labels:
[1] = tested on: CD4+ T-cells; assay: Taqman real time PCR of Shh, Ihh, HIP and Ptc expression in CD4+ T-cells (FIGS. 14, 15, 17); assay type: cell-based; settings: for Hip expression / Shh expression: activated T-cells, IFNγ; for Shh expression / production by activated T-cells: cytokine added
Description: Expression in medium, in the presence of 50 ng/ml IL-10 and in the presence of 50 ng/ml IFN-γ was compared to expression in resting CD4+ T-cells;
Similar experiments were used to study the expression of Shh (FIG. 4) and Ptc (FIG. 5) in T-cells and the expression of components of the Hh signalling pathway in lymphoid tissues (FIG. 6). FIG. 14 illustrates the results of an RT-PCR analysis of Shh, Ihh, Hip and Ptc expression. Activation of T-cells induced a sustained and marked (approximately 80-fold) increase in Shh mRNA, peaking at 44 and 72 hours. It lead to a downregulation of Ptc.

[2] = target: endogenous Shh produced by activated mouse CD4+ T-cells (mouse) (UniProt Q62226); assay: cell-based or functional assay
endogenous Shh produced by activated mouse CD4+ T-cells (mouse), sequence (Q62226 25-198 limits assumed): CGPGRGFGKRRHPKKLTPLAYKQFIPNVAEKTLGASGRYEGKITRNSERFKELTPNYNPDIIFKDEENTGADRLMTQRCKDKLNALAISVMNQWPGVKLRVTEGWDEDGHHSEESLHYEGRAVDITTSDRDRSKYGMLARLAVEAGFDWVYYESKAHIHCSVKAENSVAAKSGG

Molecule: IFNγ: cytokine interferon gamma
Hip expression ([1]; 24 and 48 hours): upreguated | Shh expression ([1]; 24 hours): downregulation | Shh expression ([1]; 48 hours): upregulation | Hip expression ([1]; 72 hours): downregulted | Shh expression / production by activated T-cells [1]: downregulation

Molecule: TGF-β
Shh expression / production by activated T-cells [1]: down-regulate

% decrease in the proportion of CD4+ T-cells in S/G2 with anti-Shh antibody (50 µg/ml), cell cycle analysis [2]: 66.2 to 81.6% | % decrease in the proportion of CD4+ T-cells in S/G2 with anti-Shh antibody (50 µg/ml), cell cycle analysis, mean [2]: 73.4% | decrease in proliferation of sub-optimally activated CD4+ T-cells with 50 µg/ml anti-Shh antibody (3H-TdR incorporation) [2]: 71.3 to 85.1%
Molecule: neutralising anti-Shh antibody 5E1

B1: IL-10: immunosuppressive cytokine, interleukin (protein, UniProt P22301 19-178, looked up)
Interleukin-10: SPGQGTQSENSCTHFPGNLPNMLRDLRDAFSRVKTFFQMKDQLDNLLLKESLLEDFKGYLGCQALSEMIQFYLEEVMPQAENQDPDIKAHVNSLGENLKTLRLRLRRCHRFLPCENKSKAVEQVKNAFNKLQEKGIYKAMSEFDIFINYIEAYMTMKIRN
Shh expression / production by activated T-cells [1]: down-regulate
